According to ChEMBL document CHEMBL1156506, “Changes to the HIV long terminal repeat and to HIV integrase differentially impact HIV integrase assembly, activity, and the binding of strand transfer inhibitors” (J Biol Chem, 2007):

Key:
[1] = test system: Human immunodeficiency virus type 1 integrase (Human immunodeficiency virus 1), Q7ZJM1 [N155H]; experiment: Inhibition of HIV recombinant integrase N155H mutant assessed as specific strand transfer activity using U5 GTCA LTR by scintillation proximity assay relative to wild type LTR; set-up: scale not given: the % may be the effect or the level left; settings: tested as the 3H-labelled form
[2] = test system: Human immunodeficiency virus type 1 integrase (Human immunodeficiency virus 1), Q7ZJM1 [N155H]; experiment: Inhibition of HIV recombinant integrase N155H mutant assessed as specific strand transfer activity using U5 GddA LTR by scintillation proximity assay relative to wild type LTR; set-up: scale not given: the % may be the effect or the level left; settings: tested as the 3H-labelled form
[3] = test system: Human immunodeficiency virus; experiment: Inhibition of HIV wild type integrase assessed as strand transfer activity using U5 ATCA LTR by scintillation proximity assay relative to wild type LTR; set-up: scale not given: the % may be the effect or the level left; settings: tested as the 3H-labelled form
[4] = test system: Human immunodeficiency virus; experiment: Binding affinity to HIV wild type integrase U5 GACA/CT LTR relative to wild type LTR; settings: tested as the 3H-labelled form
[5] = test system: Human immunodeficiency virus; experiment: Binding affinity to HIV wild type integrase using U5 GdCA LTR relative to wild type LTR; settings: tested as the 3H-labelled form
[6] = test system: Human immunodeficiency virus; experiment: Binding affinity to HIV wild type integrase using U5 dTCA LTR relative to wild type LTR; settings: tested as the 3H-labelled form
[7] = test system: Human immunodeficiency virus; experiment: Inhibition of HIV wild type integrase assessed as strand transfer activity using U5 GCCA LTR by scintillation proximity assay relative to wild type LTR; set-up: scale not given: the % may be the effect or the level left; settings: tested as the 3H-labelled form
[8] = test system: Human immunodeficiency virus; experiment: Inhibition of HIV wild type integrase assessed as strand transfer activity using U5 dTCA LTR by scintillation proximity assay relative to wild type LTR; set-up: scale not given: the % may be the effect or the level left; settings: tested as the 3H-labelled form
[9] = test system: Human immunodeficiency virus; experiment: Inhibition of HIV wild type integrase assessed as strand transfer activity using U5 GTC LTR by scintillation proximity relative; set-up: scale not given: the % may be the effect or the level left; settings: tested as the 3H-labelled form
[10] = test system: Human immunodeficiency virus; experiment: Binding affinity to U5 GTCT LTR HIV wild type integrase using U5 GTCT LTR relative to wild type LTR; settings: tested as the 3H-labelled form
[11] = test system: Human immunodeficiency virus; experiment: Binding affinity to HIV wild type integrase using U5 GTdA LTR relative to wild type LTR; settings: tested as the 3H-labelled form
[12] = test system: Human immunodeficiency virus; experiment: (§1) Inhibition of HIV wild type integrase assessed as strand transfer activity using U5 GTAA LTR by scintillation proximity assay relative to wild type LTR; set-up: scale not given: the % may be the effect or the level left; settings: tested as the 3H-labelled form
[13] = test system: Human immunodeficiency virus; experiment: Inhibition of HIV wild type integrase assessed as strand transfer activity using U5 GTdA LTR by scintillation proximity assay relative to wild type LTR; set-up: scale not given: the % may be the effect or the level left; settings: tested as the 3H-labelled form
[14] = test system: Human immunodeficiency virus; experiment: Inhibition of HIV wild type integrase assessed as strand transfer activity using U5 GTCA/CG LTR by scintillation proximity assay relative to wild type LTR; set-up: scale not given: the % may be the effect or the level left; settings: tested as the 3H-labelled form
[15] = test system: Human immunodeficiency virus type 1 integrase (Human immunodeficiency virus 1), Q7ZJM1 [Q148R]; experiment: Inhibition of HIV recombinant integrase Q148R mutant assessed as strand transfer activity using U5 INTCA LTR by scintillation proximity assay relative to wild type LTR; set-up: scale not given: the % may be the effect or the level left; settings: tested as the 3H-labelled form
[16] = test system: Human immunodeficiency virus; experiment: Inhibition of HIV wild type integrase assessed as strand transfer activity U5 GTCA/CC LTR by scintillation proximity assay relative to wild type LTR; set-up: scale not given: the % may be the effect or the level left; settings: tested as the 3H-labelled form
[17] = test system: Human immunodeficiency virus type 1 integrase (Human immunodeficiency virus 1), Q7ZJM1 [N155H]; experiment: Inhibition of HIV recombinant integrase N155H mutant assessed as strand transfer activity using U5 INTCA LTR by scintillation proximity assay relative to wild type LTR; set-up: scale not given: the % may be the effect or the level left; settings: tested as the 3H-labelled form
[18] = test system: Human immunodeficiency virus; experiment: Binding affinity to HIV wild type integrase using U5 GTCAGT LTR relative to wild type LTR; settings: tested as the 3H-labelled form
[19] = test system: Human immunodeficiency virus; experiment: Binding affinity to HIV wild type integrase using U5 GTCA LTR relative to wild type LTR; settings: tested as the 3H-labelled form
[20] = test system: Human immunodeficiency virus type 1 integrase (Human immunodeficiency virus 1), Q7ZJM1 [N155H]; experiment: Inhibition of HIV recombinant integrase N155H mutant assessed as specific strand transfer activity using U5 dTCA LTR by scintillation proximity assay relative to wild type LTR; set-up: scale not given: the % may be the effect or the level left; settings: tested as the 3H-labelled form
[21] = test system: Human immunodeficiency virus; experiment: Inhibition of HIV wild type integrase assessed as specific strand transfer activity using U5 GTCA LTR by scintillation proximity assay relative to wild type LTR; set-up: scale not given: the % may be the effect or the level left; settings: tested as the 3H-labelled form
[22] = test system: Human immunodeficiency virus; experiment: Binding affinity to HIV wild type integrase using U5 GInCA LTR relative to wild type LTR; settings: tested as the 3H-labelled form
[23] = test system: Human immunodeficiency virus; experiment: Inhibition of HIV wild type integrase assessed as strand transfer activity using U5 GTAC LTR by scintillation proximity assay relative to wild type LTR; set-up: scale not given: the % may be the effect or the level left; settings: tested as the 3H-labelled form
[24] = test system: Human immunodeficiency virus; experiment: Inhibition of HIV wild type integrase assessed as specific strand transfer activity using U5 GGCA LTR by scintillation proximity assay relative to wild type LTR; set-up: scale not given: the % may be the effect or the level left; settings: tested as the 3H-labelled form
[25] = test system: Human immunodeficiency virus type 1 integrase (Human immunodeficiency virus 1), Q7ZJM1 [Q148R]; experiment: Binding affinity to HIV recombinant integrase Q148R mutant using U5 GTC LTR relative to wild type LTR; settings: tested as the 3H-labelled form
[26] = test system: Human immunodeficiency virus type 1 integrase (Human immunodeficiency virus 1), Q7ZJM1 [N155H]; experiment: Binding affinity to HIV recombinant integrase N155H mutant using U5 GTCA LTR relative to wild type LTR; settings: tested as the 3H-labelled form
[27] = test system: Human immunodeficiency virus; experiment: Inhibition of HIV wild type integrase assessed as specific strand transfer activity using U5 dTCA LTR by scintillation proximity assay relative to wild type LTR; set-up: scale not given: the % may be the effect or the level left; settings: tested as the 3H-labelled form
[28] = test system: Human immunodeficiency virus type 1 integrase (Human immunodeficiency virus 1), Q7ZJM1 [N155H]; experiment: Inhibition of HIV recombinant integrase N155H mutant assessed as strand transfer activity using U5 dTCA LTR by scintillation proximity assay relative to wild type LTR; set-up: scale not given: the % may be the effect or the level left; settings: tested as the 3H-labelled form
[29] = test system: Human immunodeficiency virus; experiment: as §1; set-up: scale not given: the % may be the effect or the level left; settings: tested as the 3H-labelled form; remark: listed apart in the source
[30] = test system: Human immunodeficiency virus; experiment: Binding affinity to HIV wild type integrase using U5 GTAC LTR relative to wild type LTR; settings: tested as the 3H-labelled form
[31] = test system: Human immunodeficiency virus type 1 integrase (Human immunodeficiency virus 1), Q7ZJM1 [Q148R]; experiment: Inhibition of HIV recombinant integrase Q148R mutant assessed as strand transfer activity using U5 ApTCA LTR by scintillation proximity assay relative to wild type LTR; set-up: scale not given: the % may be the effect or the level left; settings: tested as the 3H-labelled form
[32] = test system: Human immunodeficiency virus type 1 integrase (Human immunodeficiency virus 1), Q7ZJM1 [Q148R]; experiment: Inhibition of HIV recombinant integrase Q148R mutant assessed as strand transfer activity using U5 GTCA LTR by scintillation proximity assay relative to wild type LTR; set-up: scale not given: the % may be the effect or the level left; settings: tested as the 3H-labelled form
[33] = test system: Human immunodeficiency virus; experiment: Inhibition of HIV wild type integrase assessed as specific strand transfer activity using U5 INTCA LTR by scintillation proximity assay relative to wild type LTR; set-up: scale not given: the % may be the effect or the level left; settings: tested as the 3H-labelled form
[34] = test system: Human immunodeficiency virus type 1 integrase (Human immunodeficiency virus 1), Q7ZJM1 [Q148R]; experiment: Binding affinity to HIV recombinant integrase Q148R mutant using U5 ApTCA LTR relative to wild type LTR; settings: tested as the 3H-labelled form
[35] = test system: Human immunodeficiency virus; experiment: Binding affinity to HIV wild type integrase using U5 GTAG LTR relative to wild type LTR; settings: tested as the 3H-labelled form
[36] = test system: Human immunodeficiency virus; experiment: Inhibition of HIV wild type integrase assessed as strand transfer activity using U5 GdCA LTR by scintillation proximity assay relative to wild type LTR; set-up: scale not given: the % may be the effect or the level left; settings: tested as the 3H-labelled form
[37] = test system: Human immunodeficiency virus; experiment: Inhibition of HIV wild type integrase assessed as strand transfer activity using U5 GTCC LTR by scintillation proximity assay relative to wild type LTR; set-up: scale not given: the % may be the effect or the level left; settings: tested as the 3H-labelled form
[38] = Inhibition of HIV wild type integrase DNA complex; set-up: species or system Human immunodeficiency virus
[39] = test system: Human immunodeficiency virus; experiment: Binding affinity to HIV wild type integrase using U5 GACA LTR relative to wild type LTR; settings: tested as the 3H-labelled form
[40] = test system: Human immunodeficiency virus; experiment: Inhibition of HIV wild type integrase assessed as strand transfer activity using U5 GdC LTR by scintillation proximity assay relative to wild type LTR; set-up: scale not given: the % may be the effect or the level left; settings: tested as the 3H-labelled form
[41] = test system: Human immunodeficiency virus type 1 integrase (Human immunodeficiency virus 1), Q7ZJM1 [N155H]; experiment: Inhibition of HIV recombinant integrase N155H mutant assessed as strand transfer activity using U5 GTdA LTR by scintillation proximity assay relative to wild type LTR; set-up: scale not given: the % may be the effect or the level left; settings: tested as the 3H-labelled form
[42] = test system: Human immunodeficiency virus type 1 integrase (Human immunodeficiency virus 1), Q7ZJM1 [N155H]; experiment: Inhibition of HIV recombinant integrase N155H mutant assessed as specific strand transfer activity using U5 GTC LTR by scintillation proximity assay relative to wild type LTR; set-up: scale not given: the % may be the effect or the level left; settings: tested as the 3H-labelled form
[43] = test system: Human immunodeficiency virus; experiment: Binding affinity to HIV wild type integrase using U5 GTTA LTR relative to wild type LTR; settings: tested as the 3H-labelled form
[44] = test system: Human immunodeficiency virus type 1 integrase (Human immunodeficiency virus 1), Q7ZJM1 [N155H]; experiment: Binding affinity to HIV recombinant integrase N155H mutant using U5 GdCA LTR relative to wild type LTR; settings: tested as the 3H-labelled form
[45] = test system: Human immunodeficiency virus; experiment: Inhibition of HIV wild type integrase assessed as specific strand transfer activity using U5 GTAA LTR by scintillation proximity assay relative to wild type LTR; set-up: scale not given: the % may be the effect or the level left; settings: tested as the 3H-labelled form

In the case of `Cn1c(N2CCCCS2(=O)=O)nc(C(=O)NCc2ccc(F)cc2)c(O)c1=O` [BMS-707035], the Activity [1] is reported as 82%, the Activity [2] is reported as 3% and the Activity [3] is reported as 75%. For the same compound, the Activity [4] was under 25%, the Activity [5] was 40% and the Activity [6] was 15%. For the same compound, the Activity [7] was 75%, the Activity [8] was 10% and the Activity [9] was 109%. It also gave an Activity [10] of 75%, an Activity [11] of 37% and an Activity [12] of 28%. For the same compound, the Activity [13] was 32%, the Activity [14] was under 25% and the Activity [15] was 0.6%. It also gave an Activity [16] of under 25%, an Activity [17] of 23% and an Activity [18] of 75%. For the same compound, the Activity [19] was 75%, the Activity [20] was over 40% and the Activity [21] was 100%. It also gave an Activity [22] of 28%, an Activity [23] of under 25% and an Activity [24] of 8%. The Activity [25] was 5%, the Activity [26] was 10% and the Activity [27] was 67%. It also gave an Activity [28] of 2%, an Activity [29] of under 25% and an Activity [30] of under 25%. For the same compound, the Activity [31] was 0.4%, the Activity [32] was 26% and the Activity [33] was 167%. It also gave an Activity [34] of 0.5%, an Activity [35] of under 25% and an Activity [36] of 70%. It also gave an Activity [37] of 75%, a Ki [38] of 17 nM and an Activity [39] of 25%. It also gave an Activity [40] of 10%, an Activity [41] of 17% and an Activity [42] of 107%. It also gave an Activity [43] of 51%, an Activity [44] of 21% and an Activity [45] of 52%.
